This passage reports IC50 results from ChEMBL document CHEMBL6087425, “Synthesis and evaluation of anti-Giardia activity of oseltamivir analogs” (Bioorg Med Chem Lett, 2025).

The test system of experiment [1] is Giardia intestinalis. Kind of experiment: Anti-parasitic activity against Giardia intestinalis assemblage A ATCC 30957 trophozoites assessed as inhibition of cyst production incubated for 24 hrs. Conditions: Giardia duodenalis, assemblage A ATCC 30957, 24 h. The class given is functional, organism-based.
For experiment [2], the system named is Giardia intestinalis. Kind of experiment: Anti-parasitic activity against Giardia intestinalis assemblage A ATCC 30957 trophozoites assessed as inhibition of parasite growth incubated for 24 hrs. In kind it is functional, organism-based. The following applies: Giardia duodenalis, assemblage A ATCC 30957, 24 h.

For orientation: IC50 means the concentration at which inhibition is half-maximal. Regarding `CCC(CC)O[C@@H]1CC(C(=O)O)=C[C@H](N)[C@H]1NC(C)=O`, the IC50 is 42 µM in the experiment with Giardia intestinalis [1] and 49 µM with Giardia intestinalis [2].
With `Cc1ncc([N+](=O)[O-])n1CCO` [METRONIDAZOLE], the IC50 in the experiment on Giardia intestinalis [1] and in the experiment on Giardia intestinalis [2] was 4 µM in each case.
With `CCOC(=O)C1=C[C@@H](OC(CC)CC)[C@H](NC(C)=O)[C@@H](N)C1` [OSELTAMIVIR], the IC50 with Giardia intestinalis [1] was 46 µM; in the experiment with Giardia intestinalis [2] it was above 120 µM.
For the molecule `CCC(CC)O[C@@H]1CC(C(=O)O)=C[C@H](NC(C)=O)[C@H]1NC(C)=O`, the IC50 in the experiment on Giardia intestinalis [1] amounted to 41 µM; in the experiment with Giardia intestinalis [2], 40 µM.
As to `CCOC(=O)C1=C[C@H](NC(=O)CF)[C@@H](NC(C)=O)[C@H](OC(CC)CC)C1`, the IC50 with Giardia intestinalis [1] turned out to be 41 µM; in the experiment with Giardia intestinalis [2], 54 µM.
Turning to `CCC(CC)O[C@@H]1CC(C(=O)O)=C[C@H](N=[N+]=[N-])[C@H]1NC(C)=O`, the IC50 in the experiment with Giardia intestinalis [1] came out at 50 µM; with Giardia intestinalis [2], 30 µM.
Consider `CCCC(=O)N[C@@H]1[C@@H](N=[N+]=[N-])C=C(C(=O)O)C[C@H]1OC(CC)CC`, for which the values for the IC50 with Giardia intestinalis [1] and in the experiment on Giardia intestinalis [2] were 46 µM and 51 µM, respectively.
